The first assay deals with Leishmania major. Kind of assay: Potency index, ratio IC50 of pentamidine to IC50 of compound for antilieshmanial activity against Leishmania major promastigotes. The format is functional.
Conditions: not given; call rule not given here
For `CSc1ccc(Nc2ncnc3ccc([N+](=O)[O-])cc23)cc1`, the “Ratio IC50” value is recorded as 3.

The test system of another assay is Leishmania major. In words: Antileishmanial activity against Leishmania major promastigotes after 72 hrs by Neubauer counting chamber based microscopy. The format is functional, organism-based.
Conditions: not given
As for `COc1ccc(Nc2ncnc3ccc([N+](=O)[O-])cc23)cc1`, the half-inhibitory concentration (IC50) result was “Not Active”.
Take `Cc1ccc(C)c(Nc2ncnc3ccc([N+](=O)[O-])cc23)c1`: the half-maximal inhibitory concentration (IC50) entry is given as “Not Active”.
On the same count and under the same terms, the same measure for `COc1cc(OC)c(Nc2ncnc3ccc([N+](=O)[O-])cc23)cc1Cl`: “Not Active”.
Same read-out and setting: the same measure for `O=[N+]([O-])c1ccc2ncnc(Nc3ccc(F)cc3)c2c1`: “Not Active”.
On the same count and under the same terms, the same measure for `O=[N+]([O-])c1ccc2ncnc(Nc3ccccc3)c2c1`: “Not Active”; for `O=[N+]([O-])c1ccc2ncnc(Nc3cc(Cl)ccc3Cl)c2c1`: “Not Active”; for `O=[N+]([O-])c1ccc2ncnc(Nc3ccc(I)cc3)c2c1`: “Not Active”.
`O=[N+]([O-])c1ccc2ncnc(Nc3cccc(Cl)c3)c2c1`: the IC50 result is listed as “Not Active”.
The same measure, in the same setting: the same measure for `O=[N+]([O-])c1ccc2ncnc(Nc3ccc(Cl)cc3)c2c1`: “Not Active”; for `O=[N+]([O-])c1ccc2ncnc(Nc3ccc(Cl)cc3Cl)c2c1`: “Not Active”; for `O=[N+]([O-])c1ccc2ncnc(Nc3ccc(Cl)c(Cl)c3)c2c1`: “Not Active”.
On the same count and under the same terms, the entry for `COc1cccc(Nc2ncnc3ccc([N+](=O)[O-])cc23)c1` is “Not Active”; for `O=[N+]([O-])c1ccc2ncnc(Nc3cccc(O)c3)c2c1` it is “Not Active”.

The same assay, now with this note: Leishmania major, 72 h; read-out: IC50.
With `Cc1ccc(Cl)cc1Nc1ncnc2ccc([N+](=O)[O-])cc12`, the half-maximal inhibitory concentration (IC50) was determined as 44.9 µM.
Same read-out and setting: the figure for `O=[N+]([O-])c1ccc2ncnc(Nc3cccc(Br)c3)c2c1` is 9.04 µM; for `Cc1ccc(Nc2ncnc3ccc([N+](=O)[O-])cc23)cc1C` it is 35.9 µM.
Consider `O=[N+]([O-])c1ccc2ncnc(Nc3ccc(Br)cc3)c2c1`, for which the IC50 turned out to be 61.5 µM.
The same measure, in the same setting: the figure for `CSc1cccc(Nc2ncnc3ccc([N+](=O)[O-])cc23)c1` is 19.9 µM.
The same measure, in the same setting: the same measure for `COc1ccccc1Nc1ncnc2ccc([N+](=O)[O-])cc12`: 4.37 µM; for `CCc1ccc(Nc2ncnc3ccc([N+](=O)[O-])cc23)cc1`: 38.2 µM.
The same measure, in the same setting: the figure for `COc1ccc(OC)c(Nc2ncnc3ccc([N+](=O)[O-])cc23)c1` is 12.3 µM; for `CSc1ccc(Nc2ncnc3ccc([N+](=O)[O-])cc23)cc1` it is 1.87 µM; for `O=[N+]([O-])c1ccc2ncnc(Nc3ccccc3Cl)c2c1` it is 6.53 µM.
Consider `Cc1ccc(Nc2ncnc3ccc([N+](=O)[O-])cc23)cc1`, for which the IC50 came out at 24 µM.

As a reminder, the IC50 is the concentration that gives 50% inhibition.
